Laboratory results published in patent US20070020306A1, “Endovascular implant with an at least sectional active coating made of radjadone and/or a ratjadone derivative” (priority 2003, published 2007).

System: aortal, smooth vascular muscle cells
Experiment: inhibition of the growth of aortal, smooth vascular muscle cells
Format: cell-based, human
Settings: pharmacologically active even in the smallest concentrations of active substance
Method: This effect already occurs starting at 1 to 100 nM, preferably 5 to 50 nM, so that already extremely low local concentrations are sufficient for an effective inhibition of restenosis in the region of an implant. This virtually precludes broader side-effects.

C/C=C/[C@@H]1O[C@H]([C@H](O)/C=C/C=C(\C)C[C@@H](C)/C=C(C)\C=C\[C@H]2CC=CC(=O)O2)C[C@@H](O)[C@@H]1C [Ratjadone]
potency in first experiments: particularly potent
